Experimental data taken from patent US20080221203A1, “Use of Agonists and Antagonists of Beta Adrenoceptors for Treating Arterial Disease” (UNIVERSITY CATHOLIQUE DE LOUVAIN, priority 2004, published 2008).
“Also recorded” adds a separate entry of the source. Where two headings read alike, the source gives them in different places. No end group written: not given here.

Tests used:
[1] = tested on: human coronary microarteries; experiment: Videomicroscopy of relaxation of pre-constricted, pressurized human coronary microarteries; type: cell-based; conditions: for relaxation of vessels without functional endothelium, % of the maximum KCl-evoked contraction: de-endothelialized / endothelium destroyed microarteries; for relaxation, % of the maximum ET-1-evoked contraction: agonist alone; for relaxation in the presence of bupranolol: beta1-2-3 antagonist bupranolol; for relaxation, % of the maximum ET-1-evoked contraction, in the presence of nadolol: pre-treatment with beta1-2 antagonist nadolol; for relaxation, % of the maximum KCl-evoked contraction: pre-constricted with high (50 mmol/L) KCl, functional endothelium; for relaxation of de-endothelialized vessels in the presence of nadolol: de-endothelialized microarteries
Description: Vessels were cannulated with dual glass micropipettes and secured with 10-0 nylon monofilament sutures in a Plexiglas isolated organ chamber circulated with oxygenated PSS (37° C.) and placed on an inverted microscope (Axiovert S100, Zeiss, Germany) connected to a CCD camera. Microvessels were pressurized with a PSS-filled burette manometer at 60 mmHg (a pressure chosen to avoid stretch-dependent effects typically manifested at higher pressures) in a no-flow state. Digitized imaging (IONOPTIX Corporation, Milton, Mass.) allowed continuous monitoring of vessel external diameter. All experiments were carried out in the presence of cyclooxygenase inhibitor (indomethacin, 10 μmol/L). After 30-45 min equilibration, vessels were contracted with high KCl solution (PSS, 50 mmol/L KCl replacing NaCl stoechiometrically). At the maximum of contraction, vasorelaxation with Substance P (100 nmol/L) was systematically tested to assess the presence of a functional endothelium. In some experiments, the endothelium was selectively destroyed by an air bolus. All reagents were added in the bathing solution.

[2] = tested on: human coronary microarteries; experiment: Measurement of smooth muscle membrane potential of isolated human coronary microvessels; type: cell-based; conditions: in the presence of NO synthase and cyclooxygenase inhibition
Description: Human right atrial and left ventricular tissue specimens obtained from patients undergoing cardiac surgery were placed in physiological saline solution (PSS) containing (mmol/L): NaCl, 120; KCl, 5.9; NaHCO3, 25; dextrose, 17.5; CaCl2, 2.5; MgCl2, 1.2; NaH2PO4, 1.2 (pH 7.4) maintained at 0-4° C., and carefully dissected to isolate microarteries. Coronary microarteries (70-170 μm diameter, 1-2 mm length), rapidly cleaned of adherent connective tissue were either kept at −80° C. until homogenization or used for functional experiments.
Microvessels were mounted in an organ bath continuously circulated (6 mL/min) with oxygenated PSS at 37° C. All experiments were performed in the presence of a NO synthase inhibitor (L-w-nitroarginine, 100 μmol/L) and indomethacin (10 μmol/L). After 60 minutes of equilibration, measurement of the smooth muscle membrane potential (Em) was made with a glass microelectrode (Clark, Electromedical instruments, type GC 120F-15) filled with 1.5M KCl. The input resistance of the microelectrodes varied between 50 and 80 MΩ. Differences in electric potential were measured with a Dagan amplifier (8100, Minneapolis, Minn., U.S.A.) and recorded. Criteria for a successful impalement were (1) an abrupt drop in voltage on entry of microelectrode into the cell, (2) stable membrane potential for at least 2 min, and (3) a sharp return to zero on withdrawal of the electrode.

[3] = tested on: aortic rings; experiment: Mouse aortic ring angiogenesis (new tubes formation); type: cell-based; conditions: for angiogenic response in beta3 adrenoceptor deficient rings: aortic rings from beta 3-KO mice
[4] = tested on: eNOS; experiment: eNOS Threonine 495 phosphorylation in cultured endothelial cells (phospho-specific antibodies); type: cell-based
Description: (§1) Human and rat cardiac coronary resistance microarteries (70-170μ diameter) were mounted in dual glass micropipettes chambers in no-flow state and constant pressure for vasomotion analysis by videomicroscopy. In addition, calcium transients and NO release were measured in cultured endothelial cells with an amperometric electrode and Fura-2 fluorescence, respectively. Phosphorylation of eNOS was measured in the same cells with phospho-specific antibodies.

[5] = tested on: coronary microarteries from mice deficient for the beta3-adrenoceptor; experiment: Relaxation of coronary microarteries from mice deficient for the beta3-adrenoceptor; type: cell-based, mouse
Description: as §1, with “antibodies. […] Relaxation to Nebivolol was blunted in coronary microarteries from mice deficient for the beta3-adrenoceptor (C).” for “antibodies.”

[6] = tested on: rat coronary microvessels; experiment: Videomicroscopy of relaxation of rat coronary microvessels; type: cell-based; conditions: for max relaxation, % of PGF2alpha pre-contracted tone: at 10 μM
Description: as §1

[7] = tested on: cultured endothelial cells; experiment: NO release in cultured endothelial cells; type: cell-based; conditions: for NO release in the presence of L-NAME: 10 μM; for NO release: at 10 μM
Description: as §1

[8] = tested on: cultured endothelial cells; experiment: Calcium transients (Ca fluorescence) in cultured endothelial cells; type: cell-based; conditions: for Ca signal increase after pre-treatment with nadolol: beta1-2 antagonist nadolol; for Ca signal increase after pre-treatment with bupranolol: combined beta1-2-3 antagonist bupranolol; for increase of Ca fluorescence: endothelial cells, compound alone
Description: as §1

[9] = tested on: human beta3 AR; experiment: Akt and eNOS phosphorylation in neonatal cardiac myocytes with adenoviral expression of human beta3 AR; type: cell-based, mouse; conditions: agonist-mediated activation, Isoproterenol+nadolol; myocytes from C57BI6 control and cardiac eNOS transgene mice
[10] = ET-1 pre-constricted, intact endothelium
[11] = ET-1 pre-constricted, intact endothelium, listed as BRL 37344
[12] = rat microvessels, listed as Nebivolol
[13] = ET-1 pre-constricted, intact endothelium, listed as isoproterenol

Substance P: endothelium-specific agonist (RPKPQQFFGLM; ends and bridges not checked; UniProt P20366 58-68, looked up)
relaxation of vessels without functional endothelium, % of the maximum KCl-evoked contraction [1]: absence of relaxation

C[C@H](Cc1ccc(OCC(=O)O)cc1)NC[C@H](O)c1cccc(Cl)c1 [BRL37344]
relaxation of ET-1 preconstricted vessels under NO synthase inhibition ([1]; ET-1 pre-constricted, L-w-nitroarginine): unaffected
relaxation, % of the maximum ET-1-evoked contraction [1, 10]: ~50%
relaxation, % of the maximum ET-1-evoked contraction [1, 11]: 52.3±13.2%
relaxation in the presence of bupranolol [1, 10]: blocked; also recorded: abolished
relaxation in the presence of bupranolol [1, 11]: fully abrogated
relaxation, % of the maximum ET-1-evoked contraction, in the presence of nadolol [1, 10]: insensitive; also recorded: resistant
relaxation, % of the maximum ET-1-evoked contraction, in the presence of nadolol [1, 11]: 54.9±16.8%
max relaxation, % of ET-1 pre-contracted tone ([1]; Example 2, nebivolol at 10 μM): reproduced
relaxation of KCl-preconstricted vessels under NO synthase inhibition ([1]; KCl pre-constricted, L-w-nitroarginine 100 μmol/L): totally abrogated
relaxation of vessels without functional endothelium, % of the maximum KCl-evoked contraction [1]: absent; also recorded: not observed; also recorded: failed to relax
relaxation, % of the maximum KCl-evoked contraction [1]: 15.5%
relaxation, % of the maximum KCl-evoked contraction ([1]; listed as BRL 37344): 15.5±5.3%
smooth muscle membrane potential [2]: significant hyperpolarization

VEGF
angiogenic response in beta3 adrenoceptor deficient rings [3]: angiogenic response

OC(CNCC(O)C1CCc2cc(F)ccc2O1)C1CCc2cc(F)ccc2O1 (stereo not drawn) [nebivolol]
dependence of relaxation on endothelium (Example 2) ([1]; human coronary microvessels): dependent on a functional endothelium
relaxation under NOS inhibition (Example 2) ([1]; human coronary microvessels, NOS inhibition): sensitive to NOS inhibition
relaxation in the presence of nadolol (Example 2) ([1]; human coronary microvessels, nadolol): insensitive
phosphorylation of Threonine 495 on eNOS [4]: dephosphorylated
phosphorylation of Threonine 495 on eNOS ([4]; listed as Nebivolol): time-dependent dephosphorylation
relaxation in microvessels from mice genetically deficient in beta3-AR [5]: blunted
max relaxation, % of PGF2alpha pre-contracted tone [6]: dose-dependent-relaxation
max relaxation, % of PGF2alpha pre-contracted tone ([6]; listed as Nebivolol): 86±6%
relaxation under NOS inhibition ([6]; rat microvessels, NOS inhibition): sensitive to NOS inhibition
relaxation in the presence of bupranolol ([6]; rat microvessels): sensitive to bupranolol
relaxation in the presence of bupranolol [6, 12]: prevented
relaxation in the presence of nadolol ([6]; rat microvessels): not to nadolol
relaxation in the presence of nadolol [6, 12]: unaffected
NO release in the presence of L-NAME [7]: 26.5±4.3 nmoles/μg prot
NO release in the presence of L-NAME ([7]; listed as Nebivolol): sensitive to L-Name
NO release [7]: 117 nmol/µg protein
NO release ([7]; listed as Nebivolol): evoked a release of NO
Ca signal increase after pre-treatment with nadolol [8]: no effect
Ca signal increase after pre-treatment with nadolol ([8]; listed as Nebivolol): unchanged
Ca signal increase after pre-treatment with bupranolol [8]: significantly blunted
Ca signal increase after pre-treatment with bupranolol ([8]; listed as Nebivolol): sensitive to bupranolol
increase of Ca fluorescence [8]: 91.8±23.7%
increase of Ca fluorescence ([8]; listed as Nebivolol): cytosolic calcium increase

CCOC(=O)COc1ccc2c(c1)C[C@@H](NC[C@H](O)c1cccc(Cl)c1)CC2 [SR58611]
new tubes formation compared to untreated controls ([3]; aortic rings from C57BI6 mice treated in vitro): time-dependent increase in new tubes formation
angiogenic response in beta3 adrenoceptor deficient rings [3]: completely lost

NC[C@H](O)c1ccc(O)c(O)c1 [norepinephrine]
relaxation, % of ET-1 contraction ([1]; 1 micromol/l, intact endothelium, pretreated with nadolol and phentolamine): 41.4±7%

CC(C)NCC(O)c1ccc(O)c(O)c1 (stereo not drawn) [isoprenaline]
phosphorylation of Akt and downstream eNOS [9]: increased phosphorylation of Akt and downstream eNOS
relaxation, % of the maximum ET-1-evoked contraction [1, 10]: ~50%
relaxation, % of the maximum ET-1-evoked contraction [1, 13]: by half
relaxation in the presence of bupranolol [1, 10]: blocked; also recorded: abolished
relaxation in the presence of bupranolol [1, 13]: fully abrogated
relaxation, % of the maximum ET-1-evoked contraction, in the presence of nadolol [1, 10]: insensitive; also recorded: resistant
relaxation, % of the maximum ET-1-evoked contraction, in the presence of nadolol [1, 13]: unaffected
relaxation of vessels without functional endothelium, % of the maximum KCl-evoked contraction [1]: 21.0±6.3%
relaxation of de-endothelialized vessels in the presence of nadolol ([1]; nadolol, listed as Iso): abrogated
relaxation of de-endothelialized vessels in the presence of nadolol ([1]; nadolol, listed as isoproterenol): 1.4±0.5%
